Laboratory results: patent US20250002475A1 (EPICS THERAPEUTICS, priority 2023, published 2025)

Columns and labels:
Kasumi-1 cells = experiment: Kasumi-1 cellular viability assay (ATP-Lite, 72 h); format: cell-based; settings: Homo sapiens, ATP-Lite luminescence, % viability relative to DMSO
Experimental: Kasumi-1 cell line was purchased from ATCC (ATCC® CRL2724™). Cells were isolated from the peripheral blood of a child with acute myeloid leukemia (AML FAB M2) (in 2nd relapse after bone marrow transplantation) in 1989. Most cells are round. Kasumi-1 cells are observed to grow individually or in small clumps in suspension.
Kasumi-1 cells are cultured in RPMI-1640 (Gibco A10491-01) containing 10% heat-inactivated and 0.22 μm filtered FBS (Gibco 10270-106) at a density of 3E+5 and 3E+6 viable cell/mL following the certificate of analysis.
(§1) Cellular viability assay: Kasumi-1 cells were plated (50 μL) in 96-well cell culture microplates (PS, F-Bottom black, Cellstar, Greiner 655086) at final concentration of 15000 cells/well. The compounds of the invention were dissolved in DMSO, and a titration curve was generated at 1000× final concentration. Compounds were then diluted 500× in tissue culture medium (RPMI-1640, 10% FBS). Then 50 μl of test compound were added to Kasumi-1 cells in a final DMSO concentration of 0.1%, final volume 100 μl. A gas permeable sealing membrane was applied to the plate to prevent evaporation (Breathe-Easy sealing membrane, Sigma Z380059-1PK) and cells were incubated for 72 h at 37° C., 5% CO2, 80% RH. After 72h of treatment, the plates were taken out of the incubator and left for a few minutes at room temperature. 100 μl of the reconstituted reagent ATP-Lite One Step (Perkin Elmer, 6016739) was added to each well. The plates were shaken for 2 min at 700 rpm and placed in the dark for 10 minutes at room temperature before measurement of luminescence intensity with Envision instrument. The raw data were expressed in RLU. Results were expressed in % of viability relative to DMSO control and an IC50 was calculated based on the concentration-response profile of individual compounds.

[1] = molecular target: T1, recombinant METTL3/METTL14 complex (Homo sapiens, UniProt Q86U44); experiment: METTL3/14 Scintillation Proximity Assay (SPA), RNA methyltransferase activity; format: biochemical; settings: 5.31 nM METTL3/14 complex, 250 nM RNA substrate, 1 μM 3H-SAM, 90 min; for compounds marked * best of the two separated forms
T1 construct: purchased Active Motif 311970; host or cells: Sf9 cells
T1 sequence (Q86U44 whole entry): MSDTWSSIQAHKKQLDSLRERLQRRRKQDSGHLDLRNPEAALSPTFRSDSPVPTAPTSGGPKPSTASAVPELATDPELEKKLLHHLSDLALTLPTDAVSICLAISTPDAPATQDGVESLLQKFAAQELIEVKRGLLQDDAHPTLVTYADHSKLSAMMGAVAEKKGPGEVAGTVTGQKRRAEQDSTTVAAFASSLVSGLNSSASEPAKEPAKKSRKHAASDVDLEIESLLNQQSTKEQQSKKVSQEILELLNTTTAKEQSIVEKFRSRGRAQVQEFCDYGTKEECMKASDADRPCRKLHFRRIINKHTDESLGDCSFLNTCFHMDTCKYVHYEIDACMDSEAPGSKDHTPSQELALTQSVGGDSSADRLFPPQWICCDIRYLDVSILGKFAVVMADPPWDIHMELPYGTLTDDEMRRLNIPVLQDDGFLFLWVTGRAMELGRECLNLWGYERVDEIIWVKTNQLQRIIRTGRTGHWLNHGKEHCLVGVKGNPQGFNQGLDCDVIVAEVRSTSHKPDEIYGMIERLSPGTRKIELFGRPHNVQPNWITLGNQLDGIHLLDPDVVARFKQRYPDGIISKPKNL
T1 sequence (Q9HCE5 whole entry partner): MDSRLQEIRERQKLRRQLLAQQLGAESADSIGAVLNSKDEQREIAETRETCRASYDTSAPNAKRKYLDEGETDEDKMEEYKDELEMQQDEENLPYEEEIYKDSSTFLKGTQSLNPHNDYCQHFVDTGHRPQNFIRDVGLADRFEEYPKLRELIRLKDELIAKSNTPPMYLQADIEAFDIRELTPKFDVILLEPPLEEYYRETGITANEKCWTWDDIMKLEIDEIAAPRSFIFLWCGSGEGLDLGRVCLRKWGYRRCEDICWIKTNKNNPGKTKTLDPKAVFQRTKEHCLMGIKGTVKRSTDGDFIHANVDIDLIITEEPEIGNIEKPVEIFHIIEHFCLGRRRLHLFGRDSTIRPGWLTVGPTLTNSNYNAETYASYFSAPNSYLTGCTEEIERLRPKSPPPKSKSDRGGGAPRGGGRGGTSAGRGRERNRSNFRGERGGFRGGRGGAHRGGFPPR

Caov-3 cells = experiment: Caov-3 cellular viability assay (ATP-Lite, 72 h); format: cell-based; settings: Homo sapiens, ATP-Lite luminescence, % viability relative to DMSO
Experimental: Caov-3 cell line was purchased from ATCC (ATCC® HTB-75™). Cells were isolated from the ovary of a ovarian cancer patient.
Caov-3 cells are cultured in DMEM (ATCC 30-2002) containing 10% heat-inactivated and 0.22 μm filtered FBS (Gibco 10270-106). The cells are seeded at 2.5E+4cell/cm^2 within the recommended subcultivation ratio of 1:3 to 1:6, as stated on the certificate of analysis issues by the provider of the cells.
as §1, with “assay: Caov-3” for “assay: Kasumi-1”, “of 10000” for “of 15000”, “to Caov-3” for “to Kasumi-1”, “After 72 h” for “After 72h”, “6016739) were” for “6016739) was”

Compound: CCC(c1ccc(N2CCC[C@@H](NCC3CCC3)C2)nn1)n1cc(-c2cncc(OC)c2)nn1 (single isomer, unassigned) [Compound 085]
- IC50 (Kasumi-1 cells): > 5000 nM
- IC50 [1]: ≤ 50 nM
- IC50 (Caov-3 cells): 500 to 5000 nM

Compound: CC(n1cc(-c2cc(=O)n3ccccc3n2)nn1)n1ccc(N2CCC[C@@H](NCC3CCC3)C2)cc1=O (single isomer, unassigned) [Compound 088]
- IC50 (Kasumi-1 cells): 500 to 5000 nM
- IC50 [1]: ≤ 50 nM
- IC50 (Caov-3 cells): 500 to 5000 nM

Compound: CC(n1cc(-c2cccn3cncc23)nn1)n1ccc(N2CCC[C@@H](NCC3CCC3)C2)cc1=O (single isomer, unassigned) [Compound 124]
- IC50 (Kasumi-1 cells): > 5000 nM
- IC50 [1]: ≤ 50 nM
- IC50 (Caov-3 cells): 500 to 5000 nM

Compound: COc1cncc(-c2ncn(C(C)n3ccc(N4CCC[C@@H](NCC5CCC5)C4)cc3=O)n2)c1 (single isomer, unassigned) [Compound 135]
- IC50 (Kasumi-1 cells): 500 to 5000 nM
- IC50 [1]: ≤ 50 nM
- IC50 (Caov-3 cells): 500 to 5000 nM

Compound: COc1cncc(-c2cn(C(C)c3ccc(N4CCC[C@@H](NCC5CCC5)C4)nc3F)nn2)c1 (single isomer, unassigned) [Compound 138]
- IC50 (Kasumi-1 cells): 500 to 5000 nM
- IC50 [1]: ≤ 50 nM
- IC50 (Caov-3 cells): 500 to 5000 nM

Compound: CC(n1cc(-c2cncc(N(C)C)c2)nn1)n1ccc(N2CCC[C@@H](NCC3CC3)C2)cc1=O (single isomer, unassigned) [Compound 142]
- IC50 (Kasumi-1 cells): ≤ 500 nM
- IC50 [1]: ≤ 50 nM
- IC50 (Caov-3 cells): ≤ 500 nM

Compound: CC(c1ccc(N2CCC[C@@H](NCC3CCC3)C2)cn1)n1cc(-c2cncc(N(C)C)c2)nn1 (single isomer, unassigned) [Compound 143]
- IC50 (Kasumi-1 cells): ≤ 500 nM
- IC50 [1]: ≤ 50 nM
- IC50 (Caov-3 cells): ≤ 500 nM

Compound: CCN(C)c1cncc(-c2cn(C(C)n3ccc(N4CCC[C@@H](NCC5CCC5)C4)cc3=O)nn2)c1 (single isomer, unassigned) [Compound 151]
- IC50 (Kasumi-1 cells): ≤ 500 nM
- IC50 [1]: ≤ 50 nM
- IC50 (Caov-3 cells): ≤ 500 nM

Compound: CC(n1cc(-c2cncc(N3CCN(C)C3=O)c2)nn1)n1ccc(N2CCC[C@@H](NCC3CCC3)C2)cc1=O (single isomer, unassigned) [Compound 153]
- IC50 (Kasumi-1 cells): > 5000 nM
- IC50 [1]: ≤ 50 nM
- IC50 (Caov-3 cells): > 5000 nM

Compound: CC(n1cc(-c2cncc(N(C)CC(F)(F)F)c2)nn1)n1ccc(N2CCC[C@@H](NCC3CCC3)C2)cc1=O (single isomer, unassigned) [Compound 154]
- IC50 (Kasumi-1 cells): ≤ 500 nM
- IC50 [1]: ≤ 50 nM
- IC50 (Caov-3 cells): ≤ 500 nM

Compound: CC(C)Nc1cncc(-c2cn(C(C)n3ccc(N4CCC[C@@H](NCC5CCC5)C4)cc3=O)nn2)c1 (single isomer, unassigned) [Compound 158]
- IC50 (Kasumi-1 cells): ≤ 500 nM
- IC50 [1]: ≤ 50 nM
- IC50 (Caov-3 cells): ≤ 500 nM

Compound: CC(n1cc(-c2cncc(N3CCCC3=O)c2)nn1)n1ccc(N2CCC[C@@H](NCC3CCC3)C2)cc1=O (single isomer, unassigned) [Compound 159]
- IC50 (Kasumi-1 cells): 500 to 5000 nM
- IC50 [1]: ≤ 50 nM
- IC50 (Caov-3 cells): 500 to 5000 nM

Compound: CC(n1cc(-c2cncc(N3CCCC3)c2)nn1)n1ccc(N2CCC[C@@H](NCC3CCC3)C2)cc1=O (single isomer, unassigned) [Compound 160]
- IC50 (Kasumi-1 cells): ≤ 500 nM
- IC50 [1]: ≤ 50 nM
- IC50 (Caov-3 cells): ≤ 500 nM

Compound: CC(n1cc(-c2cncc(N3CCC3)c2)nn1)n1ccc(N2CCC[C@@H](NCC3CCC3)C2)cc1=O (single isomer, unassigned) [Compound 161]
- IC50 (Kasumi-1 cells): ≤ 500 nM
- IC50 [1]: ≤ 50 nM
- IC50 (Caov-3 cells): ≤ 500 nM

Compound: CC(n1cnc(-c2cncc(N(C)C)c2)c1)n1ccc(N2CCC[C@@H](NCC3CCC3)C2)cc1=O (single isomer, unassigned) [Compound 166]
- IC50 (Kasumi-1 cells): ≤ 500 nM
- IC50 [1]: ≤ 50 nM
- IC50 (Caov-3 cells): ≤ 500 nM

Compound: CC(n1cc(-c2cncc(N3CCN(C)CC3)c2)nn1)n1ccc(N2CCC[C@@H](NCC3CCC3)C2)cc1=O (single isomer, unassigned) [Compound 168]
- IC50 (Kasumi-1 cells): 500 to 5000 nM
- IC50 [1]: ≤ 50 nM
- IC50 (Caov-3 cells): ≤ 500 nM

Compound: CC(c1ccc(N2CCC[C@@H](NCC3CCC3)C2)cn1)c1cnc(-c2cncc(N(C)C)c2)s1 (single isomer, unassigned) [Compound 169]
- IC50 (Kasumi-1 cells): ≤ 500 nM
- IC50 [1]: ≤ 50 nM
- IC50 (Caov-3 cells): ≤ 500 nM

Compound: CC(n1cc(-c2cncc(N3CCCC3)c2)nn1)n1ccc(N2CCC[C@@H](NCC3CC3)C2)cc1=O (single isomer, unassigned) [Compound 176]
- IC50 (Kasumi-1 cells): ≤ 500 nM
- IC50 [1]: ≤ 50 nM
- IC50 (Caov-3 cells): ≤ 500 nM

Compound: CC1CN(c2cncc(-c3cn(C(C)n4ccc(N5CCC[C@@H](NCC6CCC6)C5)cc4=O)nn3)c2)C1 (single isomer, unassigned) [Compound 177]
- IC50 (Kasumi-1 cells): ≤ 500 nM
- IC50 [1]: ≤ 50 nM
- IC50 (Caov-3 cells): ≤ 500 nM

Compound: CC(n1cc(-c2cncc(N3CCCCC3)c2)nn1)n1ccc(N2CCC[C@@H](NCC3CCC3)C2)cc1=O (single isomer, unassigned) [Compound 178]
- IC50 (Kasumi-1 cells): ≤ 500 nM
- IC50 [1]: ≤ 50 nM
- IC50 (Caov-3 cells): ≤ 500 nM

Compound: CC(n1nnc(-c2cncc(N(C)C)c2)n1)n1ccc(N2CCC[C@@H](NCC3CCC3)C2)cc1=O (single isomer, unassigned) [Compound 179]
- IC50 (Kasumi-1 cells): ≤ 500 nM
- IC50 [1]: ≤ 50 nM
- IC50 (Caov-3 cells): ≤ 500 nM

Compound: CC(n1cc(-c2cncc(N3CCCC3)n2)nn1)n1ccc(N2CCC[C@@H](NCC3CC3)C2)cc1=O (single isomer, unassigned) [Compound 180]
- IC50 (Kasumi-1 cells): ≤ 500 nM
- IC50 [1]: ≤ 50 nM
- IC50 (Caov-3 cells): ≤ 500 nM

Compound: COc1cncc(-c2ncc(C(C)c3ccc(N4CCC[C@@H](NCC5CCC5)C4)cn3)s2)c1 (single isomer, unassigned) [Compound 181]
- IC50 (Kasumi-1 cells): 500 to 5000 nM
- IC50 [1]: ≤ 50 nM
- IC50 (Caov-3 cells): 500 to 5000 nM

Compound: CC(n1cc(-c2cncc(N(C)C)n2)nn1)n1ccc(N2CCC[C@@H](NCC3CC3)C2)cc1=O (single isomer, unassigned) [Compound 186]
- IC50 (Kasumi-1 cells): ≤ 500 nM
- IC50 [1]: ≤ 50 nM
- IC50 (Caov-3 cells): ≤ 500 nM

Compound: CCOc1cncc(-c2cn(C(C)c3ccc(N4CCC[C@@H](NCC5CCC5)C4)nn3)nn2)c1 (single isomer, unassigned) [Compound 187]
- IC50 (Kasumi-1 cells): 500 to 5000 nM
- IC50 [1]: ≤ 50 nM
- IC50 (Caov-3 cells): ≤ 500 nM

Compound: COc1cc(-c2cn(C(C)n3ccc(N4CCC[C@@H](NCC5CCC5)C4)cc3=O)cn2)c2cn[nH]c2c1 (single isomer, unassigned) [Compound 188]
- IC50 (Kasumi-1 cells): 500 to 5000 nM
- IC50 [1]: ≤ 50 nM
- IC50 (Caov-3 cells): 500 to 5000 nM

Compound: CC(n1cc(-c2cncc(N3CC4(COC4)C3)c2)nn1)n1ccc(N2CCC[C@@H](NCC3CCC3)C2)cc1=O (single isomer, unassigned) [Compound 191]
- IC50 (Kasumi-1 cells): 500 to 5000 nM
- IC50 [1]: ≤ 50 nM
- IC50 (Caov-3 cells): ≤ 500 nM

Compound: CC(n1cc(-c2cncc(N3CC4(CCC4)C3)c2)nn1)n1ccc(N2CCC[C@@H](NCC3CCC3)C2)cc1=O (single isomer, unassigned) [Compound 193]
- IC50 (Kasumi-1 cells): ≤ 500 nM
- IC50 [1]: ≤ 50 nM
- IC50 (Caov-3 cells): ≤ 500 nM

Compound: CC(n1cc(-c2cc(N(C)C)cnn2)nn1)n1ccc(N2CCC[C@@H](NCC3CCC3)C2)cc1=O (single isomer, unassigned) [Compound 198]
- IC50 (Kasumi-1 cells): 500 to 5000 nM
- IC50 [1]: ≤ 50 nM
- IC50 (Caov-3 cells): 500 to 5000 nM

Compound: COC1CN(c2cncc(-c3cn(C(C)n4ccc(N5CCC[C@@H](NCC6CCC6)C5)cc4=O)nn3)c2)C1 (single isomer, unassigned) [Compound 199]
- IC50 (Kasumi-1 cells): ≤ 500 nM
- IC50 [1]: ≤ 50 nM
- IC50 (Caov-3 cells): ≤ 500 nM

Compound: CC(n1cc(-c2cncc(OCC(F)(F)F)c2)nn1)n1ccc(N2CCC[C@@H](NCC3CCC3)C2)cc1=O (single isomer, unassigned) [Compound 200]
- IC50 (Kasumi-1 cells): 500 to 5000 nM
- IC50 [1]: ≤ 50 nM
- IC50 (Caov-3 cells): 500 to 5000 nM
